The record followed here is PubChem BioAssay AID1259407 (Chemical Carcinogenesis Research Information System (CCRIS), 2018).

The subject of this data set is CCRIS mutagenicity, Ames/micronucleus/aberration tests. Nature of the data set: CCRIS mutagenicity studies.
Setting [1] is: Test System: AMES SALMONELLA TYPHIMURIUM, Strain/Indicator: TA100, Metabolic Activation: NONE, Method: STANDARD PLATE.

The source made the active and inactive calls. The rule behind the calls is not given here.

As for `CC1(C)CON(Cc2ccccc2Cl)C1=O`, the mutagenic call (End Point: In vivo chromosomal aberrations, Test System: Bone marrow, Species: Rat, Strain/Sex: Sprague-Dawley/Male, Route: Gavage) was “inactive; negative (purity 88.8%)”; the mutagenic call (Test System: Ames Salmonella typhimurium, Strain/Indicator: TA98, Metabolic Activation: None, Method: Standard Plate) was “inactive; negative (purity 92.4%)”; the mutagenic call (Test System: Ames Salmonella typhimurium, Strain/Indicator: TA98, Metabolic Activation: Rat, liver, S-9, Aroclor 1254, Method: Standard Plate) was “inactive; negative (purity 92.4%)”; the mutagenic call (Test System: Ames Salmonella typhimurium, Strain/Indicator: TA100, Metabolic Activation: None, Method: Standard Plate) is “inactive; negative (purity 92.4%)”; the mutagenic call (Test System: Ames Salmonella typhimurium, Strain/Indicator: TA100, Metabolic Activation: Rat, liver, S-9, Aroclor 1254, Method: Standard Plate) is “inactive; negative (purity 92.4%)”; the mutagenic call (Test System: Ames Salmonella typhimurium, Strain/Indicator: TA1535, Metabolic Activation: None, Method: Standard Plate) was “inactive; negative (purity 92.4%)”. Also, the mutagenic call was “inactive; negative (purity 92.4%)” (Test System: Ames Salmonella typhimurium, Strain/Indicator: TA1535, Metabolic Activation: Rat, liver, S-9, Aroclor 1254, Method: Standard Plate); “inactive; negative (purity 92.4%)” (Test System: Ames Salmonella typhimurium, Strain/Indicator: TA1537, Metabolic Activation: None, Method: Standard Plate); “inactive; negative (purity 92.4%)” (Test System: Ames Salmonella typhimurium, Strain/Indicator: TA1537, Metabolic Activation: Rat, liver, S-9, Aroclor 1254, Method: Standard Plate); “inactive; negative (purity 92.4%)” (Test System: Ames Salmonella typhimurium, Strain/Indicator: TA1538, Metabolic Activation: None, Method: Standard Plate); “inactive; negative (purity 92.4%)” (Test System: Ames Salmonella typhimurium, Strain/Indicator: TA1538, Metabolic Activation: Rat, liver, S-9, Aroclor 1254, Method: Standard Plate); “inactive; negative (purity 88.8%)” (Test System: UDS Rat hepatocytes, Strain/Indicator: Thymidine incorporation, Metabolic Activation: None, Method: Autoradiography).

Take `O=C1CCCCC1`: the mutagenic call was “inactive; negative” (Test System: AMES SALMONELLA TYPHIMURIUM, Strain/Indicator: TA98, Metabolic Activation: HAMSTER, LIVER, S-9, AROCLOR 1254, Method: PREINCUBATION); “inactive; negative” (Test System: AMES SALMONELLA TYPHIMURIUM, Strain/Indicator: TA98, Metabolic Activation: NONE, Method: PREINCUBATION); “inactive; negative” (Test System: AMES SALMONELLA TYPHIMURIUM, Strain/Indicator: TA98, Metabolic Activation: RAT, LIVER, S-9, AROCLOR 1254, Method: PREINCUBATION); “inactive; negative” (Test System: AMES SALMONELLA TYPHIMURIUM, Strain/Indicator: TA100, Metabolic Activation: HAMSTER, LIVER, S-9, AROCLOR 1254, Method: PREINCUBATION); “inactive; negative” (Test System: AMES SALMONELLA TYPHIMURIUM, Strain/Indicator: TA100, Metabolic Activation: NONE, Method: PREINCUBATION); “inactive; negative” (Test System: AMES SALMONELLA TYPHIMURIUM, Strain/Indicator: TA100, Metabolic Activation: RAT, LIVER, S-9, AROCLOR 1254, Method: PREINCUBATION). The mutagenic call (Test System: AMES SALMONELLA TYPHIMURIUM, Strain/Indicator: TA1535, Metabolic Activation: HAMSTER, LIVER, S-9, AROCLOR 1254, Method: PREINCUBATION) was “inactive; negative”; the mutagenic call (Test System: AMES SALMONELLA TYPHIMURIUM, Strain/Indicator: TA1535, Metabolic Activation: NONE, Method: PREINCUBATION) is “inactive; negative”; the mutagenic call (Test System: AMES SALMONELLA TYPHIMURIUM, Strain/Indicator: TA1535, Metabolic Activation: RAT, LIVER, S-9, AROCLOR 1254, Method: PREINCUBATION) is “inactive; negative”; the mutagenic call (Test System: AMES SALMONELLA TYPHIMURIUM, Strain/Indicator: TA1537, Metabolic Activation: HAMSTER, LIVER, S-9, AROCLOR 1254, Method: PREINCUBATION) was “inactive; negative”; the mutagenic call (Test System: AMES SALMONELLA TYPHIMURIUM, Strain/Indicator: TA1537, Metabolic Activation: NONE, Method: PREINCUBATION) is “inactive; negative”; the mutagenic call (Test System: AMES SALMONELLA TYPHIMURIUM, Strain/Indicator: TA1537, Metabolic Activation: RAT, LIVER, S-9, AROCLOR 1254, Method: PREINCUBATION) was “inactive; negative”. Moreover, the mutagenic call by setting is: (Test System: Mouse lymphoma, Strain/Indicator: L5178Y (tk+/tk-), Metabolic Activation: None, Method: Suspension/plate) “inactive; negative”; (Test System: Mouse lymphoma, Strain/Indicator: L5178Y (tk+/tk-), Metabolic Activation: Rat, Liver, S-9, Aroclor 1254, Method: Suspension/plate) “active; positive”.

For the compound `CCSCCSP(=O)(OC)OC`, the mutagenic call was “inactive; negative” (Test System: AMES SALMONELLA TYPHIMURIUM, Strain/Indicator: TA97A, Metabolic Activation: NONE, Method: STANDARD PLATE); “inactive; negative” (Test System: AMES SALMONELLA TYPHIMURIUM, Strain/Indicator: TA97A, Metabolic Activation: PLANT, HOMOGENATE, S-14, Method: STANDARD PLATE); “inactive; negative” (Test System: AMES SALMONELLA TYPHIMURIUM, Strain/Indicator: TA97A, Metabolic Activation: S-9, Method: STANDARD PLATE); “inactive; negative” (Test System: AMES SALMONELLA TYPHIMURIUM, Strain/Indicator: TA98, Metabolic Activation: NONE, Method: STANDARD PLATE); “inactive; negative” (Test System: AMES SALMONELLA TYPHIMURIUM, Strain/Indicator: TA98, Metabolic Activation: PLANT, HOMOGENATE, S-14, Method: STANDARD PLATE); “inactive; negative” (Test System: AMES SALMONELLA TYPHIMURIUM, Strain/Indicator: TA98, Metabolic Activation: RAT, LIVER, S-9, Method: STANDARD PLATE). Further, the mutagenic call by setting is: (Test System: AMES SALMONELLA TYPHIMURIUM, Strain/Indicator: TA98, Metabolic Activation: S-9, Method: STANDARD PLATE) “inactive; negative”; (Test System: AMES SALMONELLA TYPHIMURIUM, Strain/Indicator: TA98, Metabolic Activation: WHEAT SEEDLING, S-14, Method: STANDARD PLATE) “inactive; negative”; under setting [1], “inactive; negative”; (Test System: AMES SALMONELLA TYPHIMURIUM, Strain/Indicator: TA100, Metabolic Activation: PLANT, HOMOGENATE, S-14, Method: STANDARD PLATE) “inactive; negative”; (Test System: AMES SALMONELLA TYPHIMURIUM, Strain/Indicator: TA100, Metabolic Activation: S-9, Method: STANDARD PLATE) “inactive; negative”; (Test System: AMES SALMONELLA TYPHIMURIUM, Strain/Indicator: TA102, Metabolic Activation: NONE, Method: STANDARD PLATE) “inactive; negative”. Also, the mutagenic call (Test System: AMES SALMONELLA TYPHIMURIUM, Strain/Indicator: TA102, Metabolic Activation: RAT, LIVER, S-9, Method: STANDARD PLATE) was “inactive; negative”; the mutagenic call (Test System: AMES SALMONELLA TYPHIMURIUM, Strain/Indicator: TA102, Metabolic Activation: WHEAT SEEDLING, S-14, Method: STANDARD PLATE) is “inactive; negative”; the mutagenic call (Test System: AMES SALMONELLA TYPHIMURIUM, Strain/Indicator: TA1535, Metabolic Activation: NONE, Method: STANDARD PLATE) is “inactive; negative”; the mutagenic call (Test System: AMES SALMONELLA TYPHIMURIUM, Strain/Indicator: TA1535, Metabolic Activation: PLANT, HOMOGENATE, S-14, Method: STANDARD PLATE) is “inactive; negative”; the mutagenic call (Test System: AMES SALMONELLA TYPHIMURIUM, Strain/Indicator: TA1535, Metabolic Activation: RAT, LIVER, S-9, Method: STANDARD PLATE) was “inactive; negative”; the mutagenic call (Test System: AMES SALMONELLA TYPHIMURIUM, Strain/Indicator: TA1535, Metabolic Activation: S-9, Method: STANDARD PLATE) was “inactive; negative”. For the same compound, the mutagenic call (Test System: AMES SALMONELLA TYPHIMURIUM, Strain/Indicator: TA1535, Metabolic Activation: WHEAT SEEDLING, S-14, Method: STANDARD PLATE) is “inactive; negative”.

As for `Cc1cccc2cc3c4c(cccc4c12)-c1ccccc1-3`, the mutagenic call (Test System: AMES SALMONELLA TYPHIMURIUM, Strain/Indicator: TA100, Metabolic Activation: RAT, LIVER, S-9, AROCLOR 1254) was “active; positive”.

Consider `CCCCOc1c(C(=O)NOC(C)=O)ccc2ccccc12`, for which the mutagenic call is, setting by setting: under setting [1], “active; positive”; (Test System: AMES SALMONELLA TYPHIMURIUM, Strain/Indicator: TA100, Metabolic Activation: RAT, S-9, AROCLOR, Method: STANDARD PLATE) “active; positive”.
